Assay: Tested for functional activity against neuronal nicotinic acetylcholine receptor(nAChR) expressed in K177 cells using isotopic rubidium efflux assay.

Work on `c1cnc2cc([C@@H]3CCCN3)oc2c1` [(S)-2-Pyrrolidin-2-yl-furo[3,2-b]pyridine] yielded an EC50 of over 1000 µM.
